{"source": "patent US5321043A", "about": "“Method of combatting transplant rejection” (The University of Melbourne, priority 1992, dated 1994)", "key": {"[1]": {"experiment": "Blood CyA levels after seven days treatment in nephrotoxicity study (Abbott TDX fluorescence immunoassay)", "format": "in vivo, rabbit", "details": "CyA administered parenterally", "description": "Compound A was provided as a powder which was dissolved in absolute ethanol to yield a […] solution. 50 ug/kg/day was administered subcutaneously for seven days. Ethanol (50 ul/kg/day) was administered in vehicle-only control animals."}, "renal allograft": {"test_system": "renal allograft", "experiment": "Rabbit renal allograft survival", "format": "in vivo", "description": "Left orthotopic renal transplantation was performed from New Zealand White rabbit donors into Anglo lop-ear recipients. See D. Francis et al., Aust. N. Z. J. Surgery 60, 45, 1990. Contralateral nephrectomy and graft biopsy were performed on the first post-operative day. Each recipient was subsequently dependent on its transplant for renal function. Serum creatinine (sCr) was measured every 48 hours and animals were culled once sCr had risen above 1.2 mMoles/1, taken as an arbitrary end-point representing graft failure. Graft biopsies were performed weekly and post-mortem to ensure that graft loss was secondary to rejection. Standard haematoxylin and eosin and Masson's trichrome stains were performed.\nCompound A was provided as a powder which was dissolved in absolute ethanol to yield a 1 mg/ml solution. 50 μg/kg/day was administered subcutaneously for seven days commencing perioperatively. Ethanol (50 μl/kg/day) was administered in vehicle-only control animals."}, "[2]": {"test_system": "MLC response of responder lymphocytes to irradiated EBV-transformed lymphoblastoid cells", "experiment": "Mixed lymphocyte culture (MLC) suppression by CyA and PG analogues, alone and combined (tritiated thymidine uptake)", "format": "cell-based, human", "details": "for Suppression of MLC responses, mean % decrease of cpm vs drug-free cultures: mean of five donors", "description": "Heparinised blood was obtained from five healthy donors without history of previous blood transfusion, pregnancy, or organ transplantation.\nProstaglandin (PG) analogues PGE1, PGE2, PGF2a, and PGI2 were supplied by the Upjohn Company (Kalamazoo, Mich.) in the form of 15-(s)-15-methyl PGE1, 16,16-dimethyl PGE2, 16,16-dimethyl PGF2α, and 9-deoxy-2,9a-methano-3-oxa-4,5,6-trinor-3,7-(1', 3'-interphenylene)-13,14'-dihydroprostaglandin FI (Compound A). Each was provided in methyl acetate at 10 mg/mL that was subsequently diluted, first with ethyl alcohol to a concentration of 1 mg/mL and thereafter with physiological saline to the concentration range required for the study, 10.0-0.001 μg/mL.\nResponder lymphocytes were isolated from the healthy donor heparinised blood by density gradient separation and suspended in glutamine, antibiotic-supplemented RPMI medium containing 10% autologous responder lymphocyte donor serum at a concentration of 1 ×10^6 cells/mL. The stimulator population consisted of Epstein-Barr virus (EBV)-transformed lymphoblastoid cells that were irradiated (130 Gy) before suspension also at 1×10^6 cells/mL in glutamine, antibiotic-supplemented RPMI medium that contained 10% autologous responder lymphocyte donor serum.\nEqual volumes (0.1 mL) of responder and stimulator cells were incubated in triplicate wells of microtitre trays with each of the following:\nFollowing incubation at 37° C. (5% CO2) for 4 days, […] of tritiated thymidine was added to all cultures before further incubation for 6-8 hours, after which cells were automatically harvested (Skatron, Liebyen, Norway) on Titertek filter paper (Flow Laboratories, Irvine, Scotland) that was placed in vials containing liquid scintillation fluid for counting in a Beckman beta counter (Beckman, Brea, Calif.)."}, "[3]": {"test_system": "New Zealand White rabbits", "experiment": "Acute cyclosporine (CyA) nephrotoxicity in rabbits (serum creatinine, urea, histology)", "format": "in vivo, rabbit", "details": "Compound A 50 ug/kg/day s.c. with CyA 100 mg/kg/day i.v.", "description": "50 ug/kg/day was administered subcutaneously for seven days. Ethanol (50 ul/kg/day) was administered in vehicle-only control animals.\nSerum creatinine (Cr) and urea were measured prior to commencement of treatment (day 0) and 24 hours following treatment (day 7). Day 7 renal biopsies were stained with haematoxylin and eosin and Masson's trichrome."}}, "data": [{"compound": "CCCCC[C@H](O)CC[C@@H]1[C@H]2Cc3cccc(OCC(=O)O)c3C[C@H]2C[C@H]1O", "note": "[Compound A, 9-deoxy-2',9α-methano-3-oxa-4,5,6-trinor-3,7-(1',3'-interphenylene)-13, 14--dihydro-prostaglandinF1]", "values": [{"measurement": "effect on CyA bioavailability", "setting": "[1]", "value": "without effecting CyA bioavailability"}, {"measurement": "effect on renal allograft survival", "setting": "renal allograft; Compound A 50 μg/kg/day s.c., CyA 20 mg/kg where combined", "value": "prolonged allograft survival over that of untreated animals"}, {"measurement": "Median Graft Survival", "setting": "renal allograft; Compound A 50 μg/kg/day subcutaneously for seven days, no CyA", "value": 13.5, "unit": "days"}, {"measurement": "Suppression of MLC responses by CyA in combination with PG analogue", "setting": "[2]; PG analogue 0.01 μg/mL + CyA 0.001 μg/mL", "value": 27, "unit": "%"}, {"measurement": "Suppression of MLC responses by CyA in combination with PG analogue", "setting": "[2]; PG analogue 0.01 μg/mL + CyA 0.01 μg/mL", "value": 58, "unit": "%"}, {"measurement": "Suppression of MLC responses by CyA in combination with PG analogue", "setting": "[2]; PG analogue 0.01 μg/mL + CyA 0.1 μg/mL", "value": 75, "unit": "%"}, {"measurement": "Suppression of MLC responses by CyA in combination with PG analogue", "setting": "[2]; PG analogue 0.01 μg/mL + CyA 1.0 μg/mL", "value": 86, "unit": "%"}, {"measurement": "Suppression of MLC responses by CyA in combination with PG analogue", "setting": "[2]; PG analogue 0.01 μg/mL + CyA 10.0 μg/mL", "value": 87, "unit": "%"}, {"measurement": "Suppression of MLC responses by CyA in combination with PG analogue", "setting": "[2]; PG analogue 0.1 μg/mL + CyA 0.001 μg/mL", "value": 68, "unit": "%"}, {"measurement": "Suppression of MLC responses by CyA in combination with PG analogue", "setting": "[2]; PG analogue 0.1 μg/mL + CyA 0.01 μg/mL", "value": 76, "unit": "%"}, {"measurement": "Suppression of MLC responses by CyA in combination with PG analogue", "setting": "[2]; PG analogue 0.1 μg/mL + CyA 0.1 μg/mL", "value": 86, "unit": "%"}, {"measurement": "Suppression of MLC responses by CyA in combination with PG analogue", "setting": "[2]; PG analogue 0.1 μg/mL + CyA 1.0 μg/mL", "value": 85, "unit": "%"}, {"measurement": "Suppression of MLC responses by CyA in combination with PG analogue", "setting": "[2]; PG analogue 0.1 μg/mL + CyA 10.0 μg/mL", "value": 85, "unit": "%"}, {"measurement": "Suppression of MLC responses by CyA in combination with PG analogue", "setting": "[2]; PG analogue 1.0 μg/mL + CyA 0.001 μg/mL", "value": 81, "unit": "%"}, {"measurement": "Suppression of MLC responses by CyA in combination with PG analogue", "setting": "[2]; PG analogue 1.0 μg/mL + CyA 0.01 μg/mL", "value": 85, "unit": "%"}, {"measurement": "Suppression of MLC responses by CyA in combination with PG analogue", "setting": "[2]; PG analogue 1.0 μg/mL + CyA 0.1 μg/mL", "value": 85, "unit": "%"}, {"measurement": "Suppression of MLC responses by CyA in combination with PG analogue", "setting": "[2]; PG analogue 1.0 μg/mL + CyA 1.0 μg/mL", "value": 85, "unit": "%"}, {"measurement": "Suppression of MLC responses by CyA in combination with PG analogue", "setting": "[2]; PG analogue 1.0 μg/mL + CyA 10.0 μg/mL", "value": 88, "unit": "%"}, {"measurement": "Suppression of MLC responses by CyA in combination with PG analogue", "setting": "[2]; PG analogue 10.0 μg/mL + CyA 0.001 μg/mL", "value": 86, "unit": "%"}, {"measurement": "Suppression of MLC responses by CyA in combination with PG analogue", "setting": "[2]; PG analogue 10.0 μg/mL + CyA 0.01 μg/mL", "value": 88, "unit": "%"}, {"measurement": "Suppression of MLC responses by CyA in combination with PG analogue", "setting": "[2]; PG analogue 10.0 μg/mL + CyA 0.1 μg/mL", "value": 85, "unit": "%"}, {"measurement": "Suppression of MLC responses by CyA in combination with PG analogue", "setting": "[2]; PG analogue 10.0 μg/mL + CyA 1.0 μg/mL", "value": 86, "unit": "%"}, {"measurement": "Suppression of MLC responses by CyA in combination with PG analogue", "setting": "[2]; PG analogue 10.0 μg/mL + CyA 10.0 μg/mL", "value": 86, "unit": "%"}, {"measurement": "decrease in PG analogue concentration necessary for 50% MLC suppression when combined with CyA vs alone", "setting": "[2]; combination with CyA", "value": 10, "unit": "fold"}, {"measurement": "interaction with CyA on MLC suppression", "setting": "[2]; combination with CyA", "value": "a synergy that parallels that observed between CyA and the PGE analogues"}, {"measurement": "Suppression of MLC responses, mean % decrease of cpm vs drug-free cultures", "setting": "[2]; single agent at 0.001 μg/mL", "value": 10, "unit": "%"}, {"measurement": "Suppression of MLC responses, mean % decrease of cpm vs drug-free cultures", "setting": "[2]; single agent at 0.01 μg/mL", "value": 22, "unit": "%"}, {"measurement": "Suppression of MLC responses, mean % decrease of cpm vs drug-free cultures", "setting": "[2]; single agent at 0.1 μg/mL", "value": 51, "unit": "%"}, {"measurement": "Suppression of MLC responses, mean % decrease of cpm vs drug-free cultures", "setting": "[2]; single agent at 1.0 μg/mL", "value": 61, "unit": "%"}, {"measurement": "Suppression of MLC responses, mean % decrease of cpm vs drug-free cultures", "setting": "[2]; single agent at 10.0 μg/mL", "value": 77, "unit": "%"}, {"measurement": "times more effective in suppressing the MLC response than PGE1 and PGE2", "setting": "[2]; single agents", "value": 10, "unit": "times"}, {"measurement": "effect on renal function, as measured by serum Cr and urea", "setting": "[3]", "value": "significant protective effect on renal function"}, {"measurement": "effect on renal function, as measured by serum Cr and urea", "setting": "[3]; listed as PGI2 analogue", "value": "significant protective affect on renal function"}]}]}
